The values below come from patent publication US10023543B2 (CELGENE QUANTICEL RESEARCH, INC., priority 2014, dated 2018).

The subject of one assay is THP-1 (AML) cells. Put plainly: LSD1 CD11b cellular assay (flow cytometry). It counts as cell-based. Particulars: Homo sapiens, THP-1, 96 h. A general note: Flow cytometry measures light scatter and fluorescence of single cells or particles in a stream.
A further assay concerns Kasumi-1. Put plainly: Kasumi-1 AML cell line proliferation assay (Cell-MTS assay). It counts as cell-based. Particulars: Homo sapiens, 168 hours. An excerpt: Colorimetric cellular assay to assess the ability of LSD-1 small molecule inhibitors to effect the proliferation of the established AML cancer cell line Kasumi-1.
This Cell-MTS assay is a 7-day plate based colorimetric assay which quantifies the amount of newly generated NADH in the presence and absence of test compound. These NADH levels are used as a proxy for the quantification of cancer cell proliferation.
The established cancer cell line Kasumi-1 with a verified p53 mutation were purchased from American Type Culture Collection (ATCC) and routinely passaged according to ATCC published protocols. For routine assay these cells were seeded at a density of 20,000 cells per 96-well. […] At the end of this compound incubation period, 80 μl of media is removed and 20 μL of CellTiter 96® AQueous Non-Radioactive Cell Proliferation Assay solution (Promega) is added. The cells are incubated until the OD490 is >0.6. IC50 values are calculated using the IDBS XLfit software package and include background subtracted OD490 values and normalization to DMSO controls.

Setting [1] is: CD11b expressing cells, 4 days, read-out: THP-1 IC50.

By IC50 is commonly meant the concentration at which inhibition is half-maximal.

Each structure is given as a SMILES string. Where a name gives a salt, the structure may show the parent alone. Read-outs that look alike come from different tables or passages of the source.

In the case of `Cc1ccc(-c2c(-c3ccc(C#N)cc3)nc(N3CCC(N)CC3)n(C)c2=O)cc1` [Example 1, 4-(2-(4-aminopiperidin-1-yl)-1-methyl-6-oxo-5-p-tolyl-1,6-dihydropyrimidin-4-yl)benzonitrile, HCl salt], the results for the IC50 in the assay with THP-1 (AML) cells (read-out: THP-1 IC50 (μM)) and with Kasumi-1 were under 0.1 µM and under 100 nM, respectively. As for `COc1ccc(-c2c(-c3ccc(C#N)cc3)nc(N3CCC(N)CC3)n(C)c2=O)cn1` [Example 3, 4-[2-(4-amino-piperidin-1-yl)-5-(6-methoxy-pyridin-3-yl)-1-methyl-6-oxo-1,6-dihydro-pyrimidin-4-yl]-benzonitrile], the half-maximal inhibitory concentration (IC50) in the assay on THP-1 (AML) cells (setting [1]) is under 0.1 µM; in the assay on Kasumi-1, under 100 nM. For `Cc1ccc(-c2c(-c3ccc(C#N)cc3)nc(N3CCC(N)CC3)n(C)c2=O)cn1` [Example 4, 4-[2-(4-amino-piperidin-1-yl)-1-methyl-5-(6-methyl-pyridin-3-yl)-6-oxo-1,6-dihydro-pyrimidin-4-yl]-benzonitrile], the IC50 is under 0.1 µM in the assay on THP-1 (AML) cells (setting [1]) and 100 to 1000 nM in the assay with Kasumi-1. On to `COc1ccc(-c2c(-c3ccc(C#N)cc3)nc(N3CCC(N)CC3)n(C)c2=O)cc1F` [Example 5], for which the half-maximal inhibitory concentration (IC50) with THP-1 (AML) cells (read-out: THP-1 IC50 (μM)) is under 0.1 µM; in the assay on Kasumi-1, under 100 nM. For the compound `COc1ccc(-c2c(-c3ccc(C#N)c(F)c3)nc(N3CCC(N)CC3)n(C)c2=O)cc1` [Example 6, 4-[2-(4-amino-piperidin-1-yl)-5-(4-methoxy-phenyl)-1-methyl-6-oxo-1,6-dihydro-pyrimidin-4-yl]-2-fluoro-benzonitrile], the half-inhibitory concentration (IC50) in the assay with THP-1 (AML) cells (setting [1]) is under 0.1 µM; in the assay with Kasumi-1, under 100 nM. The matching figures for `COc1ccc(-c2c(-c3ccc(C#N)c(F)c3)nc(N3CCC(N)CC3)n(C)c2=O)cn1` [Example 8, 4-[2-(4-amino-piperidin-1-yl)-5-(6-methoxy-pyridin-3-yl)-1-methyl-6-oxo-1,6-dihydro-pyrimidin-4-yl]-2-fluoro-benzonitrile]: under 0.1 µM and under 100 nM. `Cc1ccc(-c2c(-c3ccc(C#N)c(F)c3)nc(N3CCC(N)CC3)n(C)c2=O)cn1` [Example 9]: the IC50 in the assay with THP-1 (AML) cells (setting [1]) is under 0.1 µM; with Kasumi-1, under 100 nM. On to `Cn1cc2cc(-c3c(-c4ccc(C#N)cc4)nc(N4CCC(N)CC4)n(C)c3=O)ccc2n1` [Example 24, 4-[2-(4-aminopiperidyl)-1-methyl-5-(2-methyl(2H-indazol-5-yl))-6-oxohydropyrimidin-4-yl]benzenecarbonitrile], for which the IC50 is under 0.1 µM in the assay on THP-1 (AML) cells (setting [1]) and under 100 nM with Kasumi-1.

Regarding `CNC1CCN(c2nc(-c3ccc(C#N)c(F)c3)c(-c3ccc4c(cnn4C)c3)c(=O)n2C)CC1` [Example 87, 2-fluoro-4-[1-methyl-2-[4-(methylamino)piperidin-1-yl]-5-(1-methylindazol-5-yl)-6-oxopyrimidin-4-yl]benzonitrile], the IC50 in the assay on THP-1 (AML) cells (setting [1]) is under 0.1 µM. For `Cn1c(N2CCC(N)CC2)nc(-c2ccc(C#N)c(F)c2)c(-c2ccc(N)cc2)c1=O` [Example 89, 4-[5-(4-aminophenyl)-2-(4-aminopiperidin-1-yl)-1-methyl-6-oxopyrimidin-4-yl]-2-fluorobenzonitrile], in the assay with THP-1 (AML) cells (setting [1]), the concentration for half-maximal inhibition (IC50) was under 0.1 µM. Turning to `CNc1ccc(-c2c(-c3ccc(C#N)c(F)c3)nc(N3CCC(N)CC3)n(C)c2=O)cc1` [Example 90, 4-[2-(4-aminopiperidin-1-yl)-1-methyl-5-[4-(methylamino)phenyl]-6-oxopyrimidin-4-yl]-2-fluorobenzonitrile], the IC50 in the assay on THP-1 (AML) cells (setting [1]) was under 0.1 µM. Consider `CNc1ccc(-c2c(-c3ccc(C#N)c(F)c3)nc(N3CCC(N)CC3)n(C)c2=O)cc1F` [Example 91, 4-[2-(4-aminopiperidin-1-yl)-5-[3-fluoro-4-(methylamino)phenyl]-1-methyl-6-oxopyrimidin-4-yl]-2-fluorobenzonitrile], for which the IC50 in the assay with THP-1 (AML) cells (setting [1]) is under 0.1 µM. Consider `COc1ccc(-c2c(-c3ccc(C#N)c(F)c3)nc(N3CCC(N(C)C)CC3)n(C)c2=O)cn1` [Example 92, 4-[2-[4-(dimethylamino)piperidin-1-yl]-5-(6-methoxypyridin-3-yl)-1-methyl-6-oxopyrimidin-4-yl]-2-fluorobenzonitrile], for which the IC50 in the assay with THP-1 (AML) cells (setting [1]) was under 0.1 µM. Consider `CCOc1ncc(-c2c(-c3ccc(C#N)c(F)c3)nc(N3CCC(N)CC3)n(C)c2=O)cc1F` [Example 93, 4-[2-(4-aminopiperidin-1-yl)-5-(6-ethoxy-5-fluoropyridin-3-yl)-1-methyl-6-oxopyrimidin-4-yl]-2-fluorobenzonitrile], for which the half-maximal inhibitory concentration (IC50) in the assay with THP-1 (AML) cells (setting [1]) was under 0.1 µM. Turning to `CCOc1ccc(-c2c(-c3ccc(C#N)c(F)c3)nc(N3CCC(N)CC3)n(C)c2=O)cn1` [Example 94, 4-[2-(4-aminopiperidin-1-yl)-5-(6-ethoxypyridin-3-yl)-1-methyl-6-oxopyrimidin-4-yl]-2-fluorobenzonitrile], the concentration for half-maximal inhibition (IC50) with THP-1 (AML) cells (setting [1]) was under 0.1 µM. On the same count and under the same terms, then `CCOc1ccc(-c2c(-c3ccc(C#N)c(F)c3)nc(N3CCC(N)CC3)n(C)c2=O)cc1` [Example 95, 4-[2-(4-aminopiperidin-1-yl)-5-(4-ethoxyphenyl)-1-methyl-6-oxopyrimidin-4-yl]-2-fluorobenzonitrile], with under 0.1 µM; and `Cn1c(N2CCC(N)CC2)nc(-c2ccc(C#N)cc2)c(-c2ccc(OCCO)cc2)c1=O` [Example 97, 4-[2-(4-aminopiperidin-1-yl)-5-[4-(2-hydroxyethoxy)phenyl]-1-methyl-6-oxopyrimidin-4-yl]benzonitrile], with under 0.1 µM; and `COCCOc1ccc(-c2c(-c3ccc(C#N)c(F)c3)nc(N3CCC(N)CC3)n(C)c2=O)cc1` [Example 98, 4-[2-(4-aminopiperidin-1-yl)-5-[4-(2-methoxyethoxy)phenyl]-1-methyl-6-oxopyrimidin-4-yl]-2-fluorobenzonitrile], with under 0.1 µM. Regarding `Cn1c(N2CCC(N)CC2)nc(-c2ccc(C#N)c(F)c2)c(-c2ccc(CCO)cc2)c1=O` [Example 99, 4-[2-(4-aminopiperidin-1-yl)-5-[4-(2-hydroxyethyl)phenyl]-1-methyl-6-oxopyrimidin-4-yl]-2-fluorobenzonitrile], the half-maximal inhibitory concentration (IC50) in the assay on THP-1 (AML) cells (setting [1]) is under 0.1 µM. As to `Cn1c(N2CCC(N)CC2)nc(-c2ccc(C#N)c(F)c2)c(-c2ccc(CO)cc2)c1=O` [Example 100, 4-[2-(4-aminopiperidin-1-yl)-5-[4-(hydroxymethyl)phenyl]-1-methyl-6-oxopyrimidin-4-yl]-2-fluorobenzonitrile], the IC50 in the assay with THP-1 (AML) cells (setting [1]) is under 0.1 µM. Turning to `Cn1c(N2CCC(N)CC2)nc(-c2ccc(C#N)c(F)c2)c(-c2ccc(F)cc2)c1=O` [Example 101, 4-[2-(4-aminopiperidin-1-yl)-5-(4-fluorophenyl)-1-methyl-6-oxopyrimidin-4-yl]-2-fluorobenzonitrile], the IC50 with THP-1 (AML) cells (setting [1]) was under 0.1 µM.

As for `Cn1c(N2CCC(N)CC2)nc(-c2ccc(C#N)c(F)c2)c(-c2cccc(F)c2)c1=O` [Example 102, 4-[2-(4-aminopiperidin-1-yl)-5-(3-fluorophenyl)-1-methyl-6-oxopyrimidin-4-yl]-2-fluorobenzonitrile], the IC50 with THP-1 (AML) cells (setting [1]) was under 0.1 µM. Same read-out and setting: the same measure for `Cn1c(N2CCC(N)CC2)nc(-c2ccc(C#N)c(F)c2)c(-c2cc(F)cc(F)c2)c1=O` [Example 103, 4-[2-(4-aminopiperidin-1-yl)-5-(3,5-difluorophenyl)-1-methyl-6-oxopyrimidin-4-yl]-2-fluorobenzonitrile]: under 0.1 µM; for `Cn1c(N2CCC(N)CC2)nc(-c2ccc(C#N)c(F)c2)c(-c2ccc(F)c(F)c2)c1=O` [Example 104, 4-[2-(4-aminopiperidin-1-yl)-5-(3,4-difluorophenyl)-1-methyl-6-oxopyrimidin-4-yl]-2-fluorobenzonitrile]: under 0.1 µM.

Consider `Cn1c(N2CCC(N)CC2)nc(-c2ccc(C#N)c(F)c2)c(-c2ccc(S(C)(=O)=O)cc2)c1=O` [Example 105, 4-[2-(4-aminopiperidin-1-yl)-1-methyl-5-(4-methylsulfonylphenyl)-6-oxopyrimidin-4-yl]-2-fluorobenzonitrile], for which the IC50 in the assay with THP-1 (AML) cells (setting [1]) was under 0.1 µM. For `Cn1c(N2CCC(N)CC2)nc(-c2ccc(C#N)c(F)c2)c(-c2ccc(Cl)cc2)c1=O` [Example 106, 4-[2-(4-aminopiperidin-1-yl)-5-(4-chlorophenyl)-1-methyl-6-oxopyrimidin-4-yl]-2-fluorobenzonitrile], the IC50 with THP-1 (AML) cells (setting [1]) was under 0.1 µM. As for `COCc1ccc(-c2c(-c3ccc(C#N)c(F)c3)nc(N3CCC(N)CC3)n(C)c2=O)cc1` [Example 107, 4-[2-(4-aminopiperidin-1-yl)-5-[4-(methoxymethyl)phenyl]-1-methyl-6-oxopyrimidin-4-yl]-2-fluorobenzonitrile], the IC50 in the assay on THP-1 (AML) cells (setting [1]) is under 0.1 µM.

Turning to `Cn1c(N2CCC(N)CC2)nc(-c2ccc(C#N)c(F)c2)cc1=O` [Example 108, 4-[2-(4-aminopiperidin-1-yl)-1-methyl-6-oxopyrimidin-4-yl]-2-fluorobenzonitrile], in the assay with THP-1 (AML) cells (setting [1]), the IC50 was 0.1 to 1 µM.

Regarding `C#Cc1c(-c2ccc(C#N)c(F)c2)nc(N2CCC(N)CC2)n(C)c1=O` [Example 110], in the assay with THP-1 (AML) cells (setting [1]), the concentration for half-maximal inhibition (IC50) lay within 0.1 to 1 µM.

As to `COc1ccc(-c2c(-c3ccc(Cl)c(F)c3)nc(N3CCC(N)CC3)n(C)c2=O)cc1` [Example 111, 2-(4-amino-piperidin-1-yl)-6-(4-chloro-3-fluoro-phenyl)-5-(4-methoxy-phenyl)-3-methyl-3H-pyrimidin-4-one], the IC50 with THP-1 (AML) cells (setting [1]) is 0.1 to 1 µM. `COc1ccc(-c2c(-c3ccc(C#N)c(F)c3)nc(N3CCC(N)CC3)[nH]c2=O)cc1` [Example 122, 4-[2-(4-amino-piperidin-1-yl)-5-(4-methoxy-phenyl)-6-oxo-1,6-dihydro-pyrimidin-4-yl]-2-fluoro-benzonitrile]: in the assay with THP-1 (AML) cells (setting [1]), the half-maximal inhibitory concentration (IC50) was under 0.1 µM.
